This is an account of results in patent US20150283127A1, “SAQUINAVIR-NO FOR IMMUNOMODULATION” (ONCONOX APS, priority 2012, published 2015).

For one data set, the system named is murine SPC. The experiment in a line: Viability of murine SPC (MTT mitochondrial activity assay). The class given is cell-based, mouse. As to conditions: minor compared with the influence on cytokines. From the text: (§1) Experimental animals (C57BL/6 mice, BALB/c mice and Dark Agouti rats) were obtained from the Animal House Facility of the Institute for Biological Research “Sinisa Stanković”, Belgrade, Serbia. Spleen cells (SPC) were isolated from murine spleens and lymph node cells (LNC) were obtained from rat cervical lymph nodes of untreated animals. Draining lymph node cells (DLNC) were obtained from popliteal lymph nodes 8-10 days after immunization of rats with myelin basic protein (guinea pig MBP, kind gift from professor Alexander Fluegel, University of Goettingen, Germany) and complete Freund's adjuvant (CFA, Difco, Detroit, Mich.). The organs were mechanically disrupted, passed through 40-μm nylon mesh filter and the resulting suspension was collected by centrifugation. Red blood cells from single cell suspensions obtained from spleens were lysed using RBC Lysis Buffer (eBioscience, San Diego, Calif.). […] Obtained purity of CD4 population was more than 97% as determined by flow cytometry. […]
(§2) In order to assess the viability of SPC, LNC, DLNC and SCC by mitochondrial activity assay we used the mitochondrial-dependent reduction of 3-(4,5-dimethylthiazol-2-yl)-2,5-[…] bromide (MTT) to formazan. […] The absorbances in MTT assay were measured at […], with a correction at 690 nm, using an automated microplate reader (LKB 5060-006, LKB, Vienna, Austria).
(Tetrazolium assays rely on reduction of a dye to a coloured formazan, in cell work by metabolically active cells.)

A further data set deals with DLNC. Put plainly: Viability of rat DLNC (MTT). It counts as cell-based. As to conditions: DLNC restimulated with MBP.
Excerpt: Experimental animals (C57BL/6 mice, BALB/c mice and Dark Agouti rats) were obtained from the Animal House Facility of the Institute for Biological Research “Sinisa Stanković”, Belgrade, Serbia. Spleen cells (SPC) were isolated from murine spleens and lymph node cells (LNC) were obtained from rat cervical lymph nodes of untreated animals. Draining lymph node cells (DLNC) were obtained from popliteal lymph nodes 8-10 days after immunization of rats with myelin basic protein (guinea pig MBP, kind gift from professor Alexander Fluegel, University of Goettingen, Germany) and complete Freund's adjuvant (CFA, Difco, Detroit, Mich.). The organs were mechanically disrupted, passed through 40-μm nylon mesh filter and the resulting suspension was collected by centrifugation. […] Obtained purity of CD4 population was more than 97% as determined by flow cytometry. […]
as §2
(§3) Next, we determined the influence of Saq-NO on encephalitogen-specific generation of IFN-g and IL-17. […]

A further data set concerns HIV. As to conditions: cited from earlier work.
The next data set deals with rat LNC. Put plainly: Viability of rat LNC (MTT mitochondrial activity assay). The class given is cell-based. As to conditions: ConA, 24 hours, difference not statistically significant.
Excerpt: as §1, §2

For data set [1] the following is noted: mice subjected to the treatment; cited from earlier work.
The subject of a further data set is SCC. Put plainly: IFN-g and IL-17 release from rat spinal cord infiltrating cells (SCC). As to conditions: unstimulated SCC isolated at the peak of EAE. The class given is cell-based.
Excerpt: Experimental animals (C57BL/6 mice, BALB/c mice and Dark Agouti rats) were obtained from the Animal House Facility of the Institute for Biological Research “Sinisa Stanković”, Belgrade, Serbia. Spleen cells (SPC) were isolated from murine spleens and lymph node cells (LNC) were obtained from rat cervical lymph nodes of untreated animals. Draining lymph node cells (DLNC) were obtained from popliteal lymph nodes 8-10 days after immunization of rats with myelin basic protein (guinea pig MBP, kind gift from professor Alexander Fluegel, University of Goettingen, Germany) and complete Freund's adjuvant (CFA, Difco, Detroit, Mich.). […] Obtained purity of CD4 population was more than 97% as determined by flow cytometry. […]
Cytokine concentration in cell culture supernatants was determined by sandwich ELISA using MaxiSorp plates (Nunc, Rochild, Denmark) and anti-cytokine paired antibodies according to the manufacturer's instructions. Samples were analyzed in duplicate for murine/rat IL-17, murine IL-10, murine TNF, murine IL-4 (eBioscience), murine IFN-γ, rat IFN-γ, rat IL-4 (R&D, Minneapolis, Minn.), rat IL-10 and rat TNF (BD Biosciences). The results were calculated using standard curves made on the basis of known concentrations of the appropriate recombinant cytokines.
as §3

The subject of another data set is spleen cells. As to conditions: ex vivo, cited from earlier work.

Take `CC(C)(C)NC(=O)C1C[C@@H]2CCCC[C@@H]2CN1CC(O[N+](=O)[O-])[C@H](Cc1ccccc1)NC(=O)C(CC(N)=O)NC(=O)c1ccc2ccccc2n1` (some centres unmarked) [Saq-NO, nitric ester of Saquinavir]: the SPC viability result with murine SPC is on record as “statistically significantly inhibited”. In the data set on DLNC, the DLNC viability entry is “much less than its influence on IFN-g and IL-17 production”. Further, the “Anti-HIV potency relative to parental drug” value in the data set with HIV is “retained”. Also, the LNC viability result in the data set with rat LNC is on record as “affected only with the highest dose”. Further, in data set [1], the Toxicity in mice result was “no toxicity”. Also, the “IFN-g and IL-17 release” value in the data set on SCC was “potently inhibited”.

In the case of `CC(C)(C)NC(=O)[C@@H]1C[C@@H]2CCCC[C@@H]2CN1C[C@@H](O)[C@H](Cc1ccccc1)NC(=O)[C@H](CC(N)=O)NC(=O)c1ccc2ccccc2n1` [Saq, (2S)—N-[(2S,3R)-4-[(3S)-3-(tert-butylcarbamoyl)-decahydroisoquinolin-2-iy]-3-hydroxy-1-phenylbutan-2-il]-2-(quinolin-2-ylformamido)butanediamide, reference compound], the “IL-1 beta, IL-10 and TNF-alpha production” value in the data set on spleen cells (in vivo exposure) is reported as “not modified”. The “IFN-gamma and IL-2 secretion by spleen cells vs control mice” value in the data set on spleen cells (mice previously treated) is “secreted more”.
